Patent EP1157000B1 (Warner-Lambert Company LLC, priority 1999, dated 2001)
Where a name gives a salt, the structure may show the parent alone.

molecular target: T1, rBCATc (Rattus norvegicus, UniProt P54690); test: Assay of BCAT ([14C] L-leucine transamination, rat brain supernatant enzyme); assay type: biochemical; conditions: 25 µM [14C] L-leucine, 10 mM 2-oxoglutarate, pH 8.3, 10 min, 22 °C; read-out: rBCATc IC50
T1 construct: The supernatant was dialyzed with at least three changes of dialysis buffer; from tissue; host or cells: rat brain (high-speed supernatant of homogenate, dialyzed)
T1 sequence (P54690 1-411): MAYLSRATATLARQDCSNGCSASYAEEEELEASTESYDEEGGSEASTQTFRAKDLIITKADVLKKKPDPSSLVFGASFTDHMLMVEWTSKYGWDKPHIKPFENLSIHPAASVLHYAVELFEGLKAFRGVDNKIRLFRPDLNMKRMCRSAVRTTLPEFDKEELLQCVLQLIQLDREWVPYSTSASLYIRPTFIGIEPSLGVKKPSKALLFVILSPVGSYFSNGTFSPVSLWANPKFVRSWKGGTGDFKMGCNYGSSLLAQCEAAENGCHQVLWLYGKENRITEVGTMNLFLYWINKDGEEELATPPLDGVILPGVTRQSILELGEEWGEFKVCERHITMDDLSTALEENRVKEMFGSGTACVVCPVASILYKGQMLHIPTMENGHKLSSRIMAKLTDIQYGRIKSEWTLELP
Experimental: Enzyme preparation: Frozen rat brains were thawed on ice and minced into fine pieces. […] The samples were homogenized in Potters homogenizer (B. Bran Biotech International) at 500 rpm for ten strokes, followed by additional ten strokes at 800 rpm. The homogenates were centrifuged in Beckman J2-M1 centrifuge with rotor JA-20 at 19, 000 rpm for 1 hr. […] The resulting enzyme was stored at -80 °C for further assays.
The solutions for the reaction mixture were made in 10-fold concentrations. After 10 min incubation at room temperature (22 °C), the reaction was stopped by adding 100 µl of 15 mM p-nitrophenyl hydrazine in 2 M HCL. After a few minutes, 1 mL of a toluene-based scintillation liquid (4.5 g of PPO and 0.5 g ofbis-MSB in 1 liter of toluene) was added, the tube was capped and mixed thoroughly with a Vortex mixer. […] Six hundreds µl of organic layer from each tube was placed into scintillation vials, followed by adding 10 ml of scintillation cocktail for counting.

Going from `C[C@@H]1CCC(CN)(CC(=O)O)C1` (mixture of isomers) [Example 5, (cis/trans)-(3R)-(1-Aminomethyl-3-methyl-cyclopentyl)-acetic acid hydrochloride] to `C[C@@H]1CCC[C@](CN)(CC(=O)O)C1` [Example 1, trans-(1R,3R)(1-Aminomethyl-3-methyl-cyclohexyl)-acetic acid hydrochloride], the IC50 falls from 2.93 mM to 0.146 mM (20-fold). The second is the more potent here.

`C[C@@H]1CC(CN)(CC(=O)O)C[C@H]1C` (racemic) [Example 4, (±)-(trans)-(1-Aminomethyl-3,4-dimethyl-cyclopentyl)-acetic acid hydrochloride] and `C[C@H]1CC(CN)(CC(=O)O)C[C@@H]1C` [Example 7, (+)-(trans)-(1-Aminomethyl-3,4-dimethyl-cyclopentyl)-acetic acid hydrochloride] are within 1.5-fold of each other in IC50: 2.51 mM for the first, 2.17 mM for the second.

First: CCNCC1(CC(=O)O)C[C@H](C)C[C@H](C)C1 (stereo in doubt) [Example 59, ((3R, 5S)-1-Ethylaminomethyl-3,5-dimethyl-cyclohexyl)-acetic acid; hydrochloride salt]
Second: CCNCC1(CC(=O)O)CC(C)CC(C)C1 (stereo not drawn) [Example 10, 1α,3β,5β-(1-Ethylaminomethyl-3,5-dimethyl-cyclohexyl)-acetic acid hydrochloride salt]
The IC50 of the first is 28-fold higher: 3.37 mM for the first, 0.121 mM for the second. The second is the more potent here.

First: CCCNCC1(CC(=O)O)C[C@H](C)C[C@H](C)C1 (stereo in doubt) [Example 62, ((3R, 5S)-3,5-Dimethyl-1-propylaminomethyl-cyclohexyl)-acetic acid; hydrochloride salt]
Second: CCCNC[C@@]1(CC(=O)O)C[C@H](C)C[C@H](C)C1 [Example 9, 1α,3β,5β-(3,5-Dimethyl-1-propylaminomethyl-cyclohexyl)-acetic acid; hydrochloride salt]
The IC50 of the first is 35-fold higher: 4.22 mM for the first, 0.12 mM for the second.

Going from `C[C@@H]1CC(CN)(CC(=O)O)C[C@H]1C` [Example 6, (+)-(trans)-(1-Aminomethyl-3,4-dimethyl-cyclopentyl)-acetic acid hydrochloride] to `C[C@@H]1C[C@H](C)C[C@](CN)(CC(=O)O)C1` [Example 8, 1α,3β,5β-(1-Aminomethyl-3,5-dimethyl-cyclohexyl)-acetic acid hydrochloride], the IC50 falls from 2.62 mM to 0.074 mM (35-fold).

First: C[C@@H]1C[C@H](C)C[C@](CNCc2ccccc2)(CC(=O)O)C1 [Example 11, 1α,3β,5β-(1-Benzylamino-methyl)-3,5-dimethyl-cyclohexyl]-acetic acid; hydrochloride salt]
Second: C[C@@H]1C[C@H](C)C[C@@](CC(=O)O)(CN(C)Cc2ccccc2)C1 [Example 14, 1α,3β,5β-{1-[(Benzyl-methyl-amino)-methyl]-3,5-dimethylcyclohexyl}-acetic acid; hydrochloride salt]
The IC50 of the first is 6.2-fold lower: 1.39 mM for the first, 8.59 mM for the second.

First: CC1CC(C)CC(CC(=O)O)(CN(C)C)C1 (stereo not drawn) [Example 12, 1α,3β,5β-(1-Dimethylaminomethyl-3,5-dimethyl-cyclohexyl)-acetic acid; hydrochloride salt]
Second: CNC[C@@]1(CC(=O)O)C[C@H](C)C[C@H](C)C1 [Example 15, 1α,3β,5β-(3,5-Dimethyl-1-methylaminomethyl-cyclohexyl)-acetic acid; hydrochloride salt]
The IC50 of the first is 18-fold higher: 1.49 mM for the first, 0.082 mM for the second. The second is the more potent here.

First: CCCCNC[C@@]1(CC(=O)O)C[C@H](C)C[C@H](C)C1 [Example 13, 1α,3β,5β-(1-Butylaminomethyl-3,5-dimethyl-cyclohexyl)-acetic acid; hydrochloride salt]
Second: CCC(C)CNCC1(CC(=O)O)C[C@H](C)C[C@H](C)C1 (stereo partly drawn) [Example 42, {(3R, 5S)-3,5-Dimethyl-1-[(2-methyl-butylamino)-methyl]-cyclohexyl}-acetic acid; hydrochloride salt]
The IC50 of the first is higher: greater than 10 mM for the first, 0.669 mM for the second.

Going from `CC(=O)NC[C@@]1(CC(=O)O)C[C@H](C)C[C@H](C)C1` [Example 16, 1α,3β,5β-[1-(Acetylamino-methyl)-3,5-dimethyl-cyclohexyl]-acetic acid] to `CC(C)NC[C@@]1(CC(=O)O)C[C@H](C)C[C@H](C)C1` [Example 21, 1α,3β,5β-(1-(Isopropylamino-methyl)-3,5-dimethyl-cyclohexyl]-acetic acid hydrochloride salt], the IC50 falls from 1.32 mM to 0.169 mM (7.8-fold).

First: CC(C)CNC[C@@]1(CC(=O)O)C[C@H](C)C[C@H](C)C1 [Example 17, 1α,3β,5β-(1-(Isobutylamino-methyl)-3,5-dimethyl-cyclohexyl]-acetic acid hydrochloride salt]
Second: CC(CO)NCC1(CC(=O)O)C[C@H](C)C[C@H](C)C1 (stereo partly drawn) [Example 43, {(3R, 5S)-1-[(2-Hydroxy-1-methyl-ethylamino)-methyl]-3,5-dimethyl-cyclohexyl}-acetic acid; hydrochloride salt]
The IC50 of the first is higher: greater than 10 mM for the first, 2.08 mM for the second. The second is the more potent here.

Going from `O=C(O)CC1(CNC2CCC2)CCCCC1` [Example 20, hydrochloride salt] to `O=C(O)CC1(CNC2CCCCC2)CCCCC1` [Example 34, (1-Cyclohexylaminomethyl-cyclohexyl)-acetic acid hydrochloride salt], the IC50 rises from 0.469 mM to 3.22 mM (6.9-fold). The first is the more potent here.

Going from `NCC1(CC(=O)O)CCCCC1` [Example 22, 1-Aminomethyl-1-cyclohexane-acetic acid] to `NCC1(CC(=O)O)CCCC1` [Example 23, 1-Aminomethyl-1-cyclopentane-acetic acid], the IC50 rises from 0.389 mM to 2.12 mM (5.4-fold). The first is the more potent here.

First: NCC1(CC(=O)O)CCCC1 [Example 24, Sodium salt of 1-aminomethyl-1-cyclopentane-acetic acid]
Second: O=C(O)CC1(CO)CCCCC1 [Example 25, Sodium salt of 1-(hydroxymethyl)cyclohexane-acetic acid]
The IC50 of the first is 5.5-fold higher: 0.942 mM for the first, 0.17 mM for the second. The second is the more potent here.

Compared with `CCC(C)CNCC1(CC(=O)O)CCCCC1` (stereo not drawn) [Example 26, {1-[(2-Methyl-butylamino)-methyl]-cyclohexyl}-acetic acid; hydrochloride salt], `CC(C)CNCC1(CC(=O)O)CCCCC1` [Example 31, [1-(Isobutylamino-methyl)-cyclohexyl]-acetic acid hydrochloride salt] is 9.5-fold lower in IC50: 8.59 mM for the first, 0.908 mM for the second.

Going from `O=C(O)CC1(CNCCCC(F)(F)F)CCCCC1` [Example 27, {1-[(4,4,4-Trifluoro-butylamino)-methyl]-cyclohexyl}-acetic acid; hydrochloride salt] to `CCCNCC1(CC(=O)O)CCCCC1` [Example 32, (1-Propylaminomethyl-cyclohexyl)-acetic acid hydrochloride salt], the IC50 falls from 1.55 mM to 0.243 mM (6.4-fold).

Compared with `CCNCC1(CC(=O)O)CCCCC1` [Example 28, (1-Ethylaminomethyl-cyclohexyl)-acetic acid hydrochloride salt], `O=C(O)CC1(CNCC2CC2)CCCCC1` [Example 29, {1-[(Cyclopropylmethyl-amino)-methyl]-cyclohexyl}-acetic acid hydrochloride salt] is 2.2-fold higher in IC50: 0.181 mM for the first, 0.391 mM for the second. The first is the more potent here.

Compared with `CC(CO)NCC1(CC(=O)O)CCCCC1` (stereo not drawn) [Example 30, {1-[(2-Hydroxy-1-methyl-ethylamino)-methyl]-cyclohexyl}-acetic acid hydrochloride salt], `CC(C)NCC1(CC(=O)O)CCCCC1` [Example 33, [1-(Isopropylamino-methyl)-cyclohexyl]-acetic acid hydrochloride salt] is 2.2-fold lower in IC50: 2.25 mM for the first, 1.02 mM for the second. The second is the more potent here.

First: O=C(O)CC1(CNCc2ccccc2)CCCCC1 [Example 35, [1-(Benzylamino-methyl)-cyclohexyl]-acetic acid hydrochloride salt]
Second: CC(=O)NCC1(CC(=O)O)CCCCC1 [Example 40, [1-(Acetylamino-methyl)-cyclohexyl]-acetic acid]
The IC50 of the first is 2.1-fold lower: 1.77 mM for the first, 3.8 mM for the second. The first is the more potent here.

First: O=C(O)CC1(CNCC2CCCC2)CCCCC1 [Example 37, {1-[Cyclopentylmethyl-amino)-methyl]-cyclohexyl}-acetic acid; hydrochloric salt]
Second: O=C(O)CC1(CNCC2CCCCC2)CCCCC1 [Example 38, {1-[(Cyclohexylmethyl-amino)-methyl]-cyclohexyl}-acetic acid; hydrochloric salt]
The IC50 of the first is 2.2-fold lower: 1.19 mM for the first, 2.62 mM for the second.

Compared with `CC(C)(C)OC(=O)NCC1(CC(=O)O)CCCCC1` [Example 39, [1-(tert-Butoxycarbonylamino-methyl)-cyclohexyl]-acetic acid], `C[C@@H]1C[C@H](C)CC(CNC2CCC2)(CC(=O)O)C1` (stereo partly drawn) [Example 41, ((3R, 5S)-1-Cyclobutylaminomethyl-3,5-dimethyl-cyclohexyl)-acetic acid; hydrochloride salt] is 2.6-fold lower in IC50: 0.933 mM for the first, 0.363 mM for the second. The second is the more potent here.

same assay, conditions: rBCATc IC50, 25 µM [14C] L-leucine, 10 mM 2-oxoglutarate, pH 8.3, 10 min, 22 °C

In order of falling IC50:
1. CC1(C)CCCC(CN)(CC(=O)O)C1 (stereo not drawn) [Example 3, (1-Aminomethyl-3,3-dimethyl-cyclohexyl)-acetic acid hydrochloride]  1.66 mM
2. CC1CCCCC1(CN)CC(=O)O (single isomer, unassigned) [Example 2, (1-Aminomethyl-2-methyl-cyclohexyl)-acetic acid hydrochloride]  1.14 mM
